Laboratory results as given in US20250281483A1, “TRANSCRIPTION FACTOR EB ACTIVATORS AND USES THEREOF” (Astellas Engineered Small Molecules US, Incorporated, priority 2022, published 2025).
Where two headings read alike, the source gives them in different places.

Tests used:
[1] = In Vitro Liver Microsomes Metabolic Stability Assay, human; type: in vitro ADME; conditions: human liver microsomes 0.5 mg/mL, 1 μM compound, NADPH, 0 and 30 min; scale-up CLint; read-out: CLint, Human LM
Experimental: (§1) In Vitro Liver Microsomes Metabolic Stability Assay of Different Species
(§2) 1. The liver microsomes were stored at −80° C. prior to use.
(§3) 2. The master solution was prepared according to Table 3.
(§4) 3. 40 μL of 10 mM NADPH solution was added to each well. The final concentrations of NADPH was 1 mM. The mixture was pre-warmed at 37° C. for 5 minutes. The negative control samples were prepared by replacing NADPH solutions with 40 μL of ultra-pure H2O. The negative control was used to exclude the misleading factor that resulted from instability of chemical itself. Samples with NADPH were prepared in duplicate. Negative controls were prepared in singlet.
(§5) 4. The reaction was started with the addition of 2 μL of 200 μM control compound or test compound solutions. Verapamil was used as positive control in this study. The final concentration of test compound or control compound was 1 μM.
(§6) 5. Aliquots of 50 μL were taken from the reaction solution at 0 and 30 minutes. The reaction was stopped by the addition of 4 volumes of cold acetonitrile with Internal Standard (100 nM alprazolam, 200 nM imipramine, 200 nM labetalol and 2 μM ketoprofen). Samples were centrifuged at 3, 220 g for 40 minutes. Aliquot of 90 μL of the supernatant was mixed with 90 μL of ultra-pure H2O and then used for LC-MS/MS analysis.
(§7) Peak areas were determined from extracted ion chromatograms. The slope value, k, was determined by linear regression of the natural logarithm of the remaining percentage of the parent drug vs. incubation time curve.
(§8) The in vitro half-life (in vitro t1/2) was determined from the slope value:
(§9) Conversion of the in vitro t1/2 (min) into the in vitro intrinsic clearance (in vitro CLint, in μL/min/mg protein) was done using the following equation (mean of duplicate determinations): […]
(§10) Conversion of the in vitro t1/2 (min) into the scale-up unbound intrinsic clearance (Scale-up CLint, in mL/min/kg) was done using the following equation (mean of duplicate determinations): […]

[2] = In Vitro Liver Microsomes Metabolic Stability Assay, rat; type: in vitro ADME; conditions: rat liver microsomes 0.5 mg/mL, 1 μM compound, NADPH, 0 and 30 min; scale-up CLint; read-out: CLint, Rat LM
Experimental: as §1, §2, §3, §4, §5, §6, §7, §8, §9, §10

[3] = In Vitro Liver Microsomes Metabolic Stability Assay, mouse; type: in vitro ADME; conditions: mouse liver microsomes 0.5 mg/mL, 1 μM compound, NADPH, 0 and 30 min; scale-up CLint; read-out: CLint, Mouse LM
Experimental: as §1, §2, §3, §4, §5, §6, §7, §8, §9, §10

TFEB = target: T1, TFEB (Homo sapiens, UniProt P19484); assay: Tfeb-Translocation Assay HEK-293T-oEX-Tfeb-GFP Cell Line; type: cell-based; conditions: HEK-293T-oEX-TFEB-GFP cells
T1 sequence (P19484 1-476): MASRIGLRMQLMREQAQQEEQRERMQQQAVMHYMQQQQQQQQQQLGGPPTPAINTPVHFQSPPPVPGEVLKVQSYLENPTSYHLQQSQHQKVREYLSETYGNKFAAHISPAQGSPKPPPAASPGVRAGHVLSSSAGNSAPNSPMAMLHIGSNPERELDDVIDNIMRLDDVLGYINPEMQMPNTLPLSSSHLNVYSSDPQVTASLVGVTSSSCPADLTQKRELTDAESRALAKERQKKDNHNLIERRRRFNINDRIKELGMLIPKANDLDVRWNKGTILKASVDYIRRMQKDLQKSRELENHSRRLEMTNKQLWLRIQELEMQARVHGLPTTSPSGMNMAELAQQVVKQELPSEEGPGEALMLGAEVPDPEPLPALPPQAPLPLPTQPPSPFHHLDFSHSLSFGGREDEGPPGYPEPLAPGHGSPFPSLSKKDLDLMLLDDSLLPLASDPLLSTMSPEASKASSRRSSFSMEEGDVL
Experimental: Tfeb-Translocation Assay HEK-293T-oEX-Tfeb-GFP Cell Line
• 1). Added 2×10^6 cell into a T75 flask with 15 mL DiVEM medium (with 10% FBS, 1% PS, 1×GLUTAMAX, 1×MEM NEAA, 1×HEPES Buffer Solution and 5 ug/mL blasticidin). • 2). Culturing for 48-72 hours. Cells in logarithmic growth phase were taken for experiment. The other cells were passaged as described in step 1. • 3). Seeded 1×10^4 cells/30 μL/well into 384-well plate (BD 356663). Cultured overnight at 37° C. & 5% CO2 incubator. • 4). Note: Used cells <10 passage
• 1). Compounds were firstly diluted by DMSO to the stock needed (10 mM), and aliquoted and stored at −20° C. • 2). Took one aliquot each time and made 3-fold or 2-fold dilutions as indicated, total 10 doses plus one DMSO control well in the source plate. • 3). Added 150 or 90 nL/well compounds solution to the assay plate by ECHO and incubated for 6 or 18 hours respectively at 37° C. & 5% CO2 incubator.
• 1). Added 30 uL 8% PFA into the wells and incubated 20 min at room temperature. • 2). Discarded the medium, washed the wells twice with DPBS to eliminate foam and bubbles in the well.
• 1). Diluted Hoechest-333824 in DPBS to get 2 μg/mL solution and added 30 uL/well into assay plate, incubated at room temperature for 20 mins. • 2). Discarded the supernatant, washed the wells twice with DPBS to eliminate foam and bubbles in the well. Then added DPBS 20 uL/well.
3). Scanned Plate by Operetta.
• 1). Reference compound: Torin 1 • 2). Test compounds: C1, C2, C3, C4, C5, C6. • 3). Diluted compounds in 384 LDV-dilution plate according to the dilution plate map • 4). Compounds starting concentration: Torin 1: 300 nM and Test compounds: 50 uM.
• 1). Selected all nucleus by Operetta as ‘All Cells’ • 2). Calculated the EGFP average intensity inside the Nucleus region. • 3). Selected population that the EGFP mean intensity inside the Nucleus region>background as the EGFP-positive cells • 4). Selected the Surrounding region of the nucleus and calculated the EGFP mean intensity of the region • 5). Inside the EGFP-positive cell population, selected the cells with EGFP mean intensity inside the Nucleus region/the EGFP mean intensity inside the surrounding region=1.2 (This ratio could be slightly adjusted from time to time) as the Translocation positive cell. • 6). Outputted the ratio of Translocation positive cell/EGFP-positive cells as the Translocation Positive Ratio. • 7). Each time set the ratio of DMSO group (Control Group) as ˜15% and then normalized the compound group to the DMSO group.

[4] = translocation positive cells ratio, read-out: TFEB Translocation EC50

Compound	EC50 (TFEB; [4]) [nM]	further results
Cc1nc2ccn(Cc3ccco3)c(=O)c2cc1C(=O)NCC1CCC(Cl)CC1 (stereo not drawn) [Comparator 2, reference compound]	–	CLint scaled at 1 μM [1]: 77 mL/min/kg; CLint scaled at 1 μM [2]: 318 mL/min/kg; CLint scaled at 1 μM [3]: 939 mL/min/kg
Cc1ccc(CNC(=O)c2cc3c(=O)n(Cc4ccccc4)ccc3nc2C)o1 [Example 1, 6-benzyl-2-methyl-N-((5-methylfuran-2-yl)methyl)-5-oxo-5,6-dihydro-1,6-naphthyridine-3-carboxamide]	< 100	CLint scaled at 1 μM [1]: 57 mL/min/kg; CLint scaled at 1 μM [2]: 319 mL/min/kg; CLint scaled at 1 μM [3]: 760 mL/min/kg
Cc1cccc(CNC(=O)c2cc3c(=O)n(Cc4ccccc4)ccc3nc2C)c1 [Example 5, 6-benzyl-2-methyl-N-(3-methylbenzyl)-5-oxo-5,6-dihydro-1,6-naphthyridine-3-carboxamide]	100 to 1000	CLint scaled at 1 μM [1]: 171 mL/min/kg; CLint scaled at 1 μM [2]: 1040 mL/min/kg; CLint scaled at 1 μM [3]: 1800 mL/min/kg
Cc1nc2ccn(Cc3ccc(Cl)cc3)c(=O)c2cc1C(=O)NCc1ccc(F)cn1 [Example 51, 6-(4-chlorobenzyl)-N-((5-fluoropyridin-2-yl)methyl)-2-methyl-5-oxo-5,6-dihydro-1,6-naphthyridine-3-carboxamide]	< 100	CLint scaled at 1 μM [2]: 42 mL/min/kg; CLint scaled at 1 μM [3]: 140 mL/min/kg
Cc1nc2ccn(Cc3ccccc3)c(=O)c2cc1C(=O)NCc1ccc(OC(C)C)cc1 [Example 67, 6-benzyl-N-(4-isopropoxybenzyl)-2-methyl-5-oxo-5,6-dihydro-1,6-naphthyridine-3-carboxamide]	≥ 10000	–
Cc1ccc(CNC(=O)c2cc3c(=O)n(Cc4ccccc4)ccc3nc2C)cc1 [Example 68, 6-benzyl-2-methyl-N-(4-methylbenzyl)-5-oxo-5,6-dihydro-1,6-naphthyridine-3-carboxamide]	100 to 1000	–
Cc1nc2ccn(Cc3ccccc3)c(=O)c2cc1C(=O)NCc1ccc2c(c1)OCO2 [Example 69, N-(benzo[d][1,3]dioxol-5-ylmethyl)-6-benzyl-2-methyl-5-oxo-5,6-dihydro-1,6-naphthyridine-3-carboxamide]	< 100	–
Cc1ccc(CNC(=O)c2cc3c(=O)n(Cc4cccs4)ccc3nc2C)o1 [Example 70, 2-methyl-N-((5-methylfuran-2-yl)methyl)-5-oxo-6-(thiophen-2-ylmethyl)-5,6-dihydro-1,6-naphthyridine-3-carboxamide]	< 100	–
Cc1nc2ccn(Cc3ccccc3)c(=O)c2cc1C(=O)NCc1cccs1 [Example 71, 6-benzyl-2-methyl-5-oxo-N-(thiophen-2-ylmethyl)-5,6-dihydro-1,6-naphthyridine-3-carboxamide]	100 to 1000	–
COCCn1ccc2nc(C)c(C(=O)NCc3ccc(C)o3)cc2c1=O [Example 72, 6-(2-methoxyethyl)-2-methyl-N-((5-methylfuran-2-yl)methyl)-5-oxo-5,6-dihydro-1,6-naphthyridine-3-carboxamide]	100 to 1000	–
Cc1nc2ccn(Cc3ccccc3)c(=O)c2cc1C(=O)NCCc1ccco1 [Example 73, 6-benzyl-N-(2-(furan-2-yl)ethyl)-2-methyl-5-oxo-5,6-dihydro-1,6-naphthyridine-3-carboxamide]	1000 to 10000	–
Nc1nc2ccn(Cc3ccccc3)c(=O)c2cc1C(=O)NCc1ccccn1 [Example 74, 2-amino-6-benzyl-5-oxo-N-(pyridin-2-ylmethyl)-5,6-dihydro-1,6-naphthyridine-3-carboxamide]	1000 to 10000	–
Cc1nc2ccn(Cc3ccc(Cl)c(F)c3)c(=O)c2cc1C(=O)NCc1ccccn1 [Example 75, 6-(4-chloro-3-fluorobenzyl)-2-methyl-5-oxo-N-(pyridin-2-ylmethyl)-5,6-dihydro-1,6-naphthyridine-3-carboxamide]	< 100	–
Cc1nc(CNC(=O)c2cc3c(=O)n(Cc4ccc(F)c(F)c4)ccc3nc2C)co1 [Example 76, 6-(3,4-difluorobenzyl)-2-methyl-N-((2-methyloxazol-4-yl)methyl)-5-oxo-5,6-dihydro-1,6-naphthyridine-3-carboxamide]	< 100	–
COCCOCCOc1ccc(CNC(=O)c2cc3c(=O)n(Cc4ccc(Cl)cc4)ccc3nc2C)nc1 [Example 77, 6-(4-chlorobenzyl)-N-((5-(2-(2-methoxyethoxy)ethoxy)pyridin-2-yl)methyl)-2-methyl-5-oxo-5,6-dihydro-1,6-naphthyridine-3-carboxamide]	≥ 10000	–
Cc1nc(CNC(=O)c2cc3c(=O)n(Cc4ccc(F)cc4)ccc3nc2C)co1 [Example 78, 6-(4-fluorobenzyl)-2-methyl-N-((2-methyloxazol-4-yl)methyl)-5-oxo-5,6-dihydro-1,6-naphthyridine-3-carboxamide]	< 100	–
Cc1nc(CNC(=O)c2cc3c(=O)n(Cc4cccc(F)c4)ccc3nc2C)co1 [Example 79, 6-(3-fluorobenzyl)-2-methyl-N-((2-methyloxazol-4-yl)methyl)-5-oxo-5,6-dihydro-1,6-naphthyridine-3-carboxamide]	< 100	–
Cc1nc(CNC(=O)c2cc3c(=O)n(Cc4ccc(Cl)cc4)ccc3nc2C)co1 [Example 80, 6-(4-chlorobenzyl)-2-methyl-N-((2-methyloxazol-4-yl)methyl)-5-oxo-5,6-dihydro-1,6-naphthyridine-3-carboxamide]	< 100	–
Cc1nc(CNC(=O)c2cc3c(=O)n(Cc4cc(F)cc(F)c4)ccc3nc2C)co1 [Example 81, 6-(3,5-difluorobenzyl)-2-methyl-N-((2-methyloxazol-4-yl)methyl)-5-oxo-5,6-dihydro-1,6-naphthyridine-3-carboxamide]	< 100	–
CCC(=O)N1CCN(c2ccc(-n3c(=O)ccc4cnc5ccc(-c6cnc7ccccc7c6)cc5c43)cc2C(F)(F)F)CC1 [Torin 1, reference compound]	–	EC50 (TFEB; reference compound, read-out: EC50 of reference compound (TFEB translocation)): 28.3 nM
